From patent US9765035B2 (priority 2013, dated 2017) come the findings set out here.

The experiment has as its target human PRMT6 (Homo sapiens, UniProt Q96LA8). As to the kind of experiment: biochemical. An excerpt:
General Materials. S-adenosylmethionine (SAM), S-adenosylhomocysteine (SAH), bicine, Tween20, dimethylsulfoxide (DMSO), bovine skin gelatin (BSG), sodium butyrate and Tris(2-carboxyethyl)phosphine hydrochloride solution (TCEP) were purchased from Sigma-Aldrich at the highest level of purity possible. ^3H-SAM was purchase from American Radiolabeled Chemicals with a specific activity of 80 Ci/mmol. 384-well streptavidin Flashplates were purchased from PerkinElmer.
Substrates. Peptide representative of human histone H4 residues 36-50 was synthesized with an N-terminal linker-affinity tag motif and a C-terminal amide cap by 21st Century Biochemicals. The peptide was purified by high-performance liquid chromatography (HPLC) to greater than 95% purity and confirmed by liquid chromatography mass spectrometry (LC-MS). The sequence was Biot-Ahx-[…]-amide and contained a monomethylated lysine at position 44 (SEQ ID NO.:5).
Molecular Biology: Full-length human PRMT6 (NM_018137.2) transcript clone was amplified from an HEK 293 cDNA library, incorporating a flanking 5′ sequence encoding a FLAG tag ([…]) (SEQ ID NO.:6) fused directly to Ser 2 of PRMT6 and a 3′ sequence encoding a hexa His sequence (HHHHHH) (SEQ ID NO.: 17) fused directly to Asp 375. The amplified gene was subcloned into pFastBacMam (Viva Biotech).
Protein Expression. Recombinant baculovirus were generated according to Bac-to-Bac kit instructions (Life Technologies). […] Infections were carried out at 37° C. for 48 hours, harvested by centrifugation, and stored at −80° C. for purification.
Protein Purification. […] Column was washed with 20 mM imidazole in the same buffer and Flag-PRMT6-His was eluted with 150 mM imidazole. Pooled fractions were dialysed against buffer Ni-A and further purified by anti-flag M2 affinity chromatography. Flag-PRMT6-His was eluted with 200 ug/ml FLAG peptide in the same buffer. Pooled fractions were dialysed in 20 mM Tris, 150 mM NaCl, 10% glycerol and 5 mM β-mercaptoethanol, pH 7.8. The purity of recovered protein was 95%.
General Procedure for PRMT6 Enzyme Assays on Peptide Substrates. The assays were all performed in a buffer consisting of 20 mM Bicine (pH=7.6), 1 mM TCEP, 0.005% BSG, and 0.002% Tween 20, prepared on the day of use. Compounds in 100% DMSO (1 ul) were spotted into a polypropylene 384-well V-bottom plates (Greiner) using a Platemate Plus outfitted with a 384-channel head (Thermo Scientific). DMSO (1 ul) was added to Columns 11, 12, 23, 24, rows A-H for the maximum signal control and 1 ul of SAH, a known product and inhibitor of PRMT6, was added to columns 11, 12, 23, 24, rows I-P for the minimum signal control. A cocktail (40 ul) containing the PRMT6 enzyme was added by Multidrop Combi (Thermo-Fisher). The compounds were allowed to incubate with PRMT6 for 30 min at room temperature, then a cocktail (10 ul) containing SAM and peptide was added to initiate the reaction (final volume=51 ul). The final concentrations of the components were as follows: PRMT6 was 1 nM, ^3H-SAM was 200 nM, non-radiolabeled SAM was 250 nM, peptide was 75 nM, SAH in the minimum signal control wells was 1 mM, and the DMSO concentration was 2%. The assays were stopped by the addition of non-radiolabeled SAM (10 ul) to a final concentration of 400 uM, which dilutes the ^3H-SAM to a level where its incorporation into the peptide substrate is no longer detectable. 50 ul of the reaction in the 384-well polypropylene plate was then transferred to a 384-well Flashplate and the biotinylated peptides were allowed to bind to the streptavidin surface for at least 1 hour before being washed once with 0.1% Tween20 in a Biotek EL×405 plate washer. The plates were then read in a PerkinElmer TopCount plate reader to measure the quantity of ^3H-labeled peptide bound to the Flashplate surface, measured as disintegrations per minute (dpm) or alternatively, referred to as counts per minute (cpm). […]

Where [1] appears, read: PRMT6 biochemical evaluation (numerical), single experiment or average of multiple experiments.
The mark [2] stands for this setting: biochemical evaluation, peptide substrate, read-out: PRMT6 IC50.
The mark [3] stands for this setting: single experiment or average of multiple experiments, read-out: PRMT6 biochemical evaluation (numerical).

Like-named read-outs stand apart in the source and are kept apart here. A value given as a limit tells only on which side of the number the result lay.

Sequence of human PRMT6 (Q96LA8 with tags, fused parts or gaps): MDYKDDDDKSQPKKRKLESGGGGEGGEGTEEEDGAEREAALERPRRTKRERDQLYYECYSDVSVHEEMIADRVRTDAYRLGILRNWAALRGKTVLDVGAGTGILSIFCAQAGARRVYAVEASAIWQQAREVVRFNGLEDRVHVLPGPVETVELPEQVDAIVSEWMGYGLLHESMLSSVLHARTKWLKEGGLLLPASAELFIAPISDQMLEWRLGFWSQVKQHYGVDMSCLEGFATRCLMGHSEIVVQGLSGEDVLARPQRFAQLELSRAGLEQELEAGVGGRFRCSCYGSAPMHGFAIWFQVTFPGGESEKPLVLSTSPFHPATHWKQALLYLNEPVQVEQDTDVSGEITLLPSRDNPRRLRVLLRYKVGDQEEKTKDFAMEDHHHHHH

Compound `CNCCN(C)Cc1n[nH]c2ccc(N3CCC4(CCCCC4)CC3)cc12` [Compound 43, N^1-((5-(3-azaspiro[5.5]undecan-3-yl)-1H-indazol-3-yl)methyl)-N^1,N^2-dimethylethane-1,2-diamine] showed an IC50 below 0.1 µM. The compound further gave an IC50 under setting [1] of 1.8 µM.

Consider `CNCCN(C)Cc1n[nH]c2ccc(C3CCOCC3)cc12` [Compound 44, N^1,N^2-dimethyl-N^1-((5-(tetrahydro-2H-pyran-4-yl)-1H-indazol-3-yl)methyl)ethane-1,2-diamine], for which the IC50 under setting [2] was below 0.1 µM and the IC50 under setting [3] is 0.072 µM.

Regarding `CNCCN(C)Cc1n[nH]c2ccc(C3=CCOCC3)cc12` [Compound 45], the IC50 by setting is: under setting [2], below 0.1 µM; under setting [3], 0.0581 µM.

On to `CNCCN(C)Cc1n[nH]c2ccc(N3CCCCC3)cc12` [Compound 46, N^1,N^2-dimethyl-N^1-((5-(piperidin-1-yl)-1H-indazol-3-yl)methyl)ethane-1,2-diamine], for which the IC50 under setting [2] was below 0.1 µM and the IC50 under setting [3] came to 0.0406 µM.

For the compound `CNCCN(C)Cc1n[nH]c2ccc(C3CCCCC3)cc12` [Compound 47, N^1-((5-cyclohexyl-1H-indazol-3-yl)methyl)-N^1,N^2-dimethylethane-1,2-diamine], the IC50 under setting [2] was below 0.1 µM and the IC50 under setting [3] turned out to be 0.0743 µM.

Regarding `CNCCN(C)Cc1n[nH]c2ccc(C3=CCCCC3)cc12` [Compound 48], the IC50 under setting [2] is below 0.1 µM and the IC50 under setting [3] was determined as 0.0656 µM.

On to `CNCCN(C)Cc1n[nH]c2ccc(Oc3ccccc3C(F)(F)F)cc12` [Compound 49], for which the IC50 was 3.01 to 10 µM under setting [2] and 0.0519 µM under setting [3].

Turning to `CNCCN(C)Cc1n[nH]c2ccc(OCC3CCOCC3)cc12` [Compound 50], the IC50 was 3.01 to 10 µM under setting [2] and 0.045 µM under setting [3].

With `CNCCN(C)Cc1n[nH]c2ccc(OCC3CCN(C(C)=O)CC3)cc12` [Compound 51], the IC50 runs as follows: under setting [2], 1.01 to 3 µM; under setting [3], above 10 µM.

For `CNCCN(C)Cc1n[nH]c2ccc(OCC3CCCC3)cc12` [Compound 52], the IC50 runs as follows: under setting [2], 1.01 to 3 µM; under setting [3], 6.02 µM.

For `CNCCN(C)Cc1c2cc(OCc3ccc(C#N)cc3)ccc2nn1C1CCOCC1` [Compound 53], the IC50 was 1.01 to 3 µM under setting [2] and 2.55 µM under setting [3].

On to `CNCCN(C)Cc1n[nH]c2ccc(OCC3CCCCC3)cc12` [Compound 54], for which the IC50 was 0.101 to 1 µM under setting [2] and 2.33 µM under setting [3].

`CNCCN(C)Cc1n[nH]c2ccc(Oc3ccc(C)cc3)cc12` [Compound 55]: the IC50 by setting is: under setting [2], 0.101 to 1 µM; under setting [3], 1.02 µM.

With `CNCCN(C)Cc1n[nH]c2ccc(Oc3ccccc3OC(C)C)cc12` [Compound 56], the IC50 under setting [2] was in the range of 0.101 to 1 µM and the IC50 under setting [3] came out at 0.774 µM.

Turning to `CNCCN(C)Cc1n[nH]c2ccc(Oc3ccc(Cl)cc3)cc12` [Compound 57], the IC50 under setting [2] fell in the range of 0.101 to 1 µM and the IC50 under setting [3] was 0.479 µM.

On to `CNCCN(C)Cc1n[nH]c2ccc(OC3CCN(C(C)=O)CC3)cc12` [Compound 58, 1-(4-((3-((methyl(2-(methylamino)ethyl)amino)methyl)-1H-indazol-5-yl)oxy)piperidin-1-yl)ethan-1-one], for which the IC50 is 0.101 to 1 µM under setting [2] and 0.447 µM under setting [3].

In turn, `CNCCN(C)Cc1n[nH]c2ccc(Oc3ccc(OC)cc3)cc12` [Compound 59] yielded an IC50 of 0.101 to 1 µM. Also, the IC50 under setting [1] turned out to be 0.306 µM.

In the case of `CNCCN(C)Cc1n[nH]c2ccc(Oc3ccccc3C)cc12` [Compound 60], the IC50 under setting [2] fell in the range of 0.101 to 1 µM and the IC50 under setting [3] was 0.243 µM.

Consider `CNCCN(C)Cc1n[nH]c2ccc(Oc3ccc(OC(C)C)cc3)cc12` [Compound 61], for which the IC50 runs as follows: under setting [2], 0.101 to 1 µM; under setting [3], 0.236 µM.

Take `CNCCN(C)Cc1nn(C(C)C)c2ccc(OCc3ccc(C#N)cc3)cc12` [Compound 62]: the IC50 reads like this: under setting [2], 0.101 to 1 µM; under setting [3], 0.191 µM.

For `CCOc1ccc2[nH]nc(CN(C)CCNC)c2c1` [Compound 63], the IC50 was 0.101 to 1 µM under setting [2] and 0.164 µM under setting [3].

With `CNCCN(C)Cc1n[nH]c2ccc(OC(C)C)cc12` [Compound 64], the IC50 reads like this: under setting [2], below 0.1 µM; under setting [3], 0.107 µM.

For `CCCOc1ccc2[nH]nc(CN(C)CCNC)c2c1` [Compound 65], the IC50 is below 0.1 µM under setting [2] and 0.105 µM under setting [3].

`CNCCN(C)Cc1n[nH]c2ccc(OCc3cccc(C(N)=O)c3)cc12` [Compound 66]: the IC50 is below 0.1 µM under setting [2] and 0.0564 µM under setting [3].

Regarding `CNCCN(C)Cc1n[nH]c2ccc(Oc3cccc(OC(C)C)c3)cc12` [Compound 67], the IC50 under setting [2] is below 0.1 µM and the IC50 under setting [3] turned out to be 0.0562 µM.

For the compound `CNCCN(C)Cc1n[nH]c2ccc(OCc3ccc(C(F)(F)F)cc3)cc12` [Compound 68], the IC50 by setting is: under setting [2], below 0.1 µM; under setting [3], 0.0397 µM.

On to `CNCCN(C)Cc1n[nH]c2ccc(OCc3ccc(C(N)=O)cc3)cc12` [Compound 69], for which the IC50 by setting is: under setting [2], below 0.1 µM; under setting [3], 0.0342 µM.

As to `CNCCN(C)Cc1n[nH]c2ccc(OCc3cccc(NC(C)=O)c3)cc12` [Compound 70], the IC50 runs as follows: under setting [2], below 0.1 µM; under setting [3], 0.0151 µM.

As for `CNCCN(C)Cc1n[nH]c2ccc(OCc3ccc(C(C)(C)C)cc3)cc12` [Compound 71], the IC50 is below 0.1 µM under setting [2] and 0.0131 µM under setting [3].

`CNCCN(C)Cc1n[nH]c2ccc(OCc3cccc(C(F)(F)F)c3)cc12` [Compound 72]: the IC50 was below 0.1 µM under setting [2] and 0.0127 µM under setting [3].

In the case of `CNCCN(C)Cc1n[nH]c2ccc(OCc3cccc(C(C)=O)c3)cc12` [Compound 73], the IC50 is, setting by setting: under setting [2], below 0.1 µM; under setting [3], 0.00949 µM.

Take `CNCCN(C)Cc1n[nH]c2ccc(OCc3cccc(C(C)(C)C)c3)cc12` [Compound 74]: the IC50 is, setting by setting: under setting [2], below 0.1 µM; under setting [3], 0.00909 µM.
